# Assay results reported in patent publication US9434978B2, “Culture medium for screening or enrichment of methicillin-resistant S. aureus” (BIO-RAD INNOVATIONS, priority 2009, dated 2016).
# System: MSSA
# Assay: Specificity of the medium on the MSSA strains
# Type: cell-based, Staphylococcus aureus
# Settings: 8 MSSA strains; for number of MSSA strains that grew at 24 h after stress: plates 3 days at 37° C. before inoculation
# From the text: The basal medium comprises peptone, salts, antifungal and antibacterial agents to inhibit the growth of Gram negative bacteria and fungi. The basal medium is chosen to promote the growth of staphylococci, in particular Staphylococcus aureus.
# Several strains of MRSA (methicillin resistant S. aureus) and MSSA (methicillin susceptible S. aureus) have been chosen from a collection of strains. Strains were cultivated first on a non selective medium. The colonies are used to perform a “heavy inoculum or HI”, corresponding to approximately 10^8 bacteria/mL inoculated as a spot on a small portion of the plate, and a “light inoculum or LI”, corresponding to approximately 10^5 bacteria/mL streaked on a large portion of the plate. Plates were incubated for 48 h at 35-37° C. The reading was performed at 24 and 48 h of incubation time.
# Abbreviations and legends to the Tables: • cefotetan (CTT) • ceftriaxone (CRO) • cefuroxime (CXM) • cefsulodin (CFS), • Cefepime (FEP) • Cefoperazone (CFP) • cefpodoxime (CPD) • moxalactam (MOX) • cefoxitin (FOX) • cefmetazole (CMT) • ceftiofur (XLN) • G: growth (if nothing else is written, “G” means growth with HI and LI at 24 h); Imp G: heavy growth; AG: absence of growth; cfu: colony forming unit; μcfu: pinpoint colonies; SENS: Sensitivity (%); SPE: Specificity (%); MRSA: methicillin-resistant Staphylococcus aureus; MSSA: methicillin-sensitive Staphylococcus aureus; MRSE: methicillin-resistant Staphylococcus epidermidis; MSSE: methicillin-sensitive Staphylococcus epidermidis; Results
# When two cephalosporins are added, the stability of the formula is increased. Due to the fact that the molecules are unstable, growth of MSSA often appears after stress. The inventors have mimicked the stress due to transportation of the Petri dishes to the customer's lab, in summer, by placing the plates for 3 days at 37° C. before inoculation and incubation 24 or 48 h. The basal medium composition was the same as described in Example 1. Abbreviations have the same meaning.
Structure (SMILES),number of MSSA strains that grew at 24 h after stress,number of MSSA strains able to grow at 24 h (plates not submitted to stress)
"CO/N=C(\C(=O)N[C@@H]1C(=O)N2C(C(=O)O)=C(CSc3nc(=O)c(=O)[nH]n3C)CS[C@H]12)c1csc(N)n1 [CRO, ceftriaxone]",four,one
"CO[C@@]1(NC(=O)Cc2cccs2)C(=O)N2C(C(=O)O)=C(COC(N)=O)CS[C@@H]21 [FOX, cefoxitin]",4,
"CO[C@@]1(NC(=O)C(C(=O)O)c2ccc(O)cc2)C(=O)N2C(C(=O)O)=C(CSc3nnnn3C)CO[C@@H]21 (stereo partly shown) [MOX, moxalactam]",4,
